Reference: patent publication US20240425478A1, “CYCLOPENTYLPYRAZOLE CDK2 INHIBITORS” (Genentech, Inc., priority 2021, published 2024)
Where two headings read alike, the source gives them in different places.

Experiments:
[1] = molecular target: T1, Cyclin Dependent Kinase 1/Cyclin A2 (CDK1-cycA2) (Homo sapiens, UniProt P06493); experiment: CDK1-cycA2 TR-FRET (Lance) enzyme assay; type: biochemical; conditions: for Ki: Table O, enzymatic assay; for FS CDK1/CDK2: fold selectivity, enzymatic Ki ratio
T1 construct: purchased ProQinase 0134-0054-1
T1 sequence (P06493 whole entry): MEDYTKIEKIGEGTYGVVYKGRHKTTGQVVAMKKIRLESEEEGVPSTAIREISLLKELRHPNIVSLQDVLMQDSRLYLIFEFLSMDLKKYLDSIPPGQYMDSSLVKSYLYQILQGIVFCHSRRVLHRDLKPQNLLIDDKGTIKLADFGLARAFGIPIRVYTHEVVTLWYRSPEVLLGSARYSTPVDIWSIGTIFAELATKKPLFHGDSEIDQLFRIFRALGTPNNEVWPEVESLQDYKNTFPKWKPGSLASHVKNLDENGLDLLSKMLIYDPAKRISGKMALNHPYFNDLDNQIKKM
T1 sequence (P20248 whole entry partner): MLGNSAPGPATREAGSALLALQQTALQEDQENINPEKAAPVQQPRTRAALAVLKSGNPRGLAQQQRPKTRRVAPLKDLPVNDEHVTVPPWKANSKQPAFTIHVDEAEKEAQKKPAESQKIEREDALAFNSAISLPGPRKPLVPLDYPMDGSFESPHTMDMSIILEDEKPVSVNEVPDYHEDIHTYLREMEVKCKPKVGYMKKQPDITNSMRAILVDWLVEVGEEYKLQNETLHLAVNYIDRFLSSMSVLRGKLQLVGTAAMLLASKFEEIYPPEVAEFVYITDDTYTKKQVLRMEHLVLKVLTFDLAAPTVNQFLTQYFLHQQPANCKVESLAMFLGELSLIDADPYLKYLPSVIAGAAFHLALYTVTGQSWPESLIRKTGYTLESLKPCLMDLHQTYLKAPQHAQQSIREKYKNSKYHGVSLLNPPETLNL
Summary of the method: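 TR-FRET (Lance) detection of phospho-4E-BP1 with a europium-labelled antibody after EDTA quench (15 mM final); signal taken as acceptor/donor ratio. Enzyme and compound were pre-incubated 30 min in HEPES pH 7.5 buffer with MgCl2, TCEP, BGG and Brij 35. Ki derived by Morrison fit.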

[2] = molecular target: T2, Cyclin Dependent Kinase 2/Cyclin E1 (CDK2-cycE1) (Homo sapiens, UniProt P24941); experiment: CDK2-cycE1 TR-FRET (LANCE) enzyme assay; type: biochemical; conditions: for FS CDK1/CDK2 / FS CDK4/CDK2: fold selectivity;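 on improvement in potency against CDK2 (Ki) over Comparator C: fold lower CDK2 Ki than comparator c (Ki 0.032 µM)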
T2 construct: purchased ProQinase 0050-0055-1
Summary of the method: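 Kinase reaction buffer: 50 mM HEPES pH 7.5, 10 mM MgCl2, 2 mM TCEP, 0.05% BGG, 0.01% Brij 35, with 30 min compound–enzyme pre-incubation.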

[3] = molecular target: T3, Cyclin Dependent Kinase 4/Cyclin D3 (CDK4-cycD3) (Homo sapiens, UniProt P11802); experiment: CDK4-cycD3 TR-FRET (LANCE) enzyme assay; type: biochemical; conditions: for Ki: Table O, enzymatic assay; for FS CDK4/CDK2: fold selectivity, enzymatic Ki ratio
T3 construct: purchased Carna Biosciences 04-105
T3 sequence (P11802 whole entry): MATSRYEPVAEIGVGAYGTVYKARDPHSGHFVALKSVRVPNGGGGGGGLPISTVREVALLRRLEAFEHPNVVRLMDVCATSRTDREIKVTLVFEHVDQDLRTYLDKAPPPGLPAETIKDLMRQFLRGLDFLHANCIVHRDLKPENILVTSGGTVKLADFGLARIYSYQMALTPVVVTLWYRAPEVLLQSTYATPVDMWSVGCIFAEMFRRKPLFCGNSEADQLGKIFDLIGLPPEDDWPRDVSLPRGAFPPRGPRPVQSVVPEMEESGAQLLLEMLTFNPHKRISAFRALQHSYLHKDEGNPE
T3 sequence (P30281 whole entry partner): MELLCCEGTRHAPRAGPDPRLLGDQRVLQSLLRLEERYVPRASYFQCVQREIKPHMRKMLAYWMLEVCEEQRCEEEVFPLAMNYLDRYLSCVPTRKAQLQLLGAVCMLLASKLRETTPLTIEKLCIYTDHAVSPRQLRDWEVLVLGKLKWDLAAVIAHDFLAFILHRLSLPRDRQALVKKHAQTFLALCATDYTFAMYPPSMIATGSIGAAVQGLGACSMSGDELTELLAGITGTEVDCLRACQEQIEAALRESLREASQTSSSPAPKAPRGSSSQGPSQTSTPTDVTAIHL
Summary of the method: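 Compound dose responses pre-incubated 30 min with enzyme mix in 50 mM HEPES pH 7.5, 10 mM MgCl2, 2 mM TCEP, 0.05% BGG, 0.01% Brij 35. Reaction quenched with EDTA (15 mM final); Eu-anti-phospho-4E-BP1 TR-FRET detection, acceptor/donor ratio. Ki derived by Morrison equation.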

[4] = system: OVISE (JCRB1043, CCNE1-amplified); experiment: OVISE EdU incorporation cell proliferation assay (CDK2-dependent); type: cell-based; conditions: for IC50: cellular assay, read-out: CDK2 OVISE IC50; for FS SKOV-3/OVISE / FS p-H3/OVISE: fold selectivity; for FS p-H3/OVISE: cellular p-H3 IC50 over OVISE IC50; for CDK2 OVISE IC50 fold change in potency versus Comparator D: Table R; for CDK2 OVISE IC50 fold change in potency versus Comparator E: Table S
Summary of the method: (§1)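 EdU incorporation (0.5 μM final, last 8 h) follows a 16 h compound exposure at 37 °C, 5% CO2 in RPMI plus 10% FBS, 0.5% DMSO. After fixation, imaging scores EdU-positive cells; a 4-parameter logistic fit of that fraction gives IC50.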

SKOV-3 (ATCC HTB-77) = experiment: SKOV-3 EdU incorporation cell proliferation assay (CDK4/6-dependent); type: cell-based; conditions: for IC50: Homo sapiens, cellular assay, read-out: CDK4/6 SKOV-3 IC50; for selectivity for CDK2 over CDK4 compared with Comparator E: SKOV-3/OVISE fold-selectivity cellular assay data; for FS SKOV-3/OVISE: fold selectivity, cellular IC50 ratio
Summary of the method: as §1

HCT116 cells = experiment: p-H3 HCT-116 mitotic release cell proliferation assay (cellular CDK1); type: cell-based; conditions: Homo sapiens, HCT-116; Table O, cellular assay; read-out: CDK1 p-H3 IC50
Summary of the method: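 Phospho-Histone H3 (Ser10) in lysates was quantified by a two-antibody HTRF FRET read (≥2 h, room temperature). Before this, HCT116 cells held in mitosis by 16 h of 500 nM nocodazole were treated with compound for 4 h at 37 °C, 0.1% DMSO.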

[5] = Table O, enzymatic assay, read-out: CDK2 Ki
[6] = Table O, enzymatic CDK1 Ki over CDK2 Ki
[7] = Table O, enzymatic CDK4 Ki over CDK2 Ki
[8] = Table O, cellular SKOV-3 IC50 over OVISE IC50
[9] = Table R, enzymatic assay, read-out: CDK2 Ki
[10] = Table R, in brackets after CDK2 Ki
[11] = Table S, enzymatic assay, read-out: CDK2 Ki
[12] = Table S, in brackets after CDK2 Ki
[13] = read-out: CDK2 activity / potency (enzymatic assay)

Compound	Ki [1] [nM]	Ki [2, 5] [nM]	FS CDK1/CDK2 [2, 6]	FS CDK4/CDK2 [2, 7]	Ki [3] [nM]	IC50 (SKOV-3 (ATCC HTB-77); SK-OV-3, Table O) [nM]	IC50 (HCT116 cells) [nM]	IC50 ([4]; Table O) [nM]	FS SKOV-3/OVISE [4, 8]	FS p-H3/OVISE ([4]; Table O)	FS CDK1/CDK2 increased over Comparator D, (+) sign ([1]; Table R)	FS CDK1/CDK2 ([1]; Table R)	FS CDK1/CDK2 ([1]; Table S)	Ki [2, 9] [nM]	CDK2 Ki fold change in potency versus Comparator D [2, 10] [fold]	Ki [2, 11] [nM]	CDK2 Ki fold change in potency versus Comparator E [2, 12] [fold]	FS CDK4/CDK2 increased over Comparator D, (+) sign ([3]; Table R)	FS CDK4/CDK2 ([3]; Table R)	FS CDK4/CDK2 ([3]; Table S)	other results
CN1CCC(NC(=O)O[C@@H]2CC[C@H](c3cc(Nc4cccnn4)n[nH]3)C2)CC1 [Example 3E, (1R,3S)-3-(3-(pyridazin-3-ylamino)-1H-pyrazol-5-yl)cyclopentyl (1-methylpiperidin-4-yl)carbamate]	280	10	28	72	720	13000	1400	420	31	3.3	–	–	–	–	–	–	–	–	–	–	–
Cc1ncccc1Nc1cc([C@H]2CC[C@@H](OC(=O)NC(C)(C)C)C2)[nH]n1 [Example 4, (1R,3S)-3-(3-((2-methylpyridin-3-yl)amino)-1H-pyrazol-5-yl)cyclopentyl tert-butylcarbamate]	25	0.22	110	160	34	920	30	20	46	1.5	(+)	110	110	0.22	12.3	0.22	2.4	(+)	160	160	FS CDK1/CDK2 increased over Comparator E, (+) sign ([1]; Table S): (+); Ki [2, 13]: ≤ 1 nM; FS CDK4/CDK2 increased over Comparator E, (+) sign ([3]; Table S): (+); CDK2 cell potency compared with Comparator E ([4]; CDK2 OVISE cellular assay data): more potent CDK2 cell inhibitors compared to Comparator E; CDK2 OVISE IC50 fold change in potency versus Comparator D ([4]; in brackets after OVISE IC50): 190 fold; CDK2 OVISE IC50 fold change in potency versus Comparator E ([4]; in brackets after OVISE IC50): 8.5 fold; selectivity for CDK2 over CDK4 compared with Comparator E (SKOV-3 (ATCC HTB-77)): increase in selectivity for CDK2 over CDK4; FS SKOV-3/OVISE increased over Comparator D, (+) sign (SKOV-3 (ATCC HTB-77); Table R): (+); FS SKOV-3/OVISE (SKOV-3 (ATCC HTB-77); Table R): 46; FS SKOV-3/OVISE increased over Comparator E, (+) sign (SKOV-3 (ATCC HTB-77); Table S): (+); FS SKOV-3/OVISE (SKOV-3 (ATCC HTB-77); Table S): 46
Cc1ccncc1Nc1cc([C@H]2CC[C@@H](OC(=O)NC(C)(C)C)C2)[nH]n1 [Example 4A, (1R,3S)-3-(3-((4-methylpyridin-3-yl)amino)-1H-pyrazol-5-yl)cyclopentyl tert-butylcarbamate]	210	2.6	78	170	410	9900	93	180	71	0.72	(+)	78	78	2.6	1	2.6	0.2	(+)	170	170	FS CDK1/CDK2 increased over Comparator E, (+) sign ([1]; Table S): (+); FS CDK4/CDK2 increased over Comparator E, (+) sign ([3]; Table S): (+); CDK2 OVISE IC50 fold change in potency versus Comparator D ([4]; in brackets after OVISE IC50): 21 fold; CDK2 OVISE IC50 fold change in potency versus Comparator E ([4]; in brackets after OVISE IC50): 0.9 fold; selectivity for CDK2 over CDK4 compared with Comparator E (SKOV-3 (ATCC HTB-77)): increase in selectivity for CDK2 over CDK4; FS SKOV-3/OVISE increased over Comparator D, (+) sign (SKOV-3 (ATCC HTB-77); Table R): (+); FS SKOV-3/OVISE (SKOV-3 (ATCC HTB-77); Table R): 71; FS SKOV-3/OVISE increased over Comparator E, (+) sign (SKOV-3 (ATCC HTB-77); Table S): (+); FS SKOV-3/OVISE (SKOV-3 (ATCC HTB-77); Table S): 71
Cc1ccc(Nc2cc([C@H]3CC[C@@H](OC(=O)NC(C)(C)C)C3)[nH]n2)cn1 [Example 4B, (1R,3S)-3-(3-((6-methylpyridin-3-yl)amino)-1H-pyrazol-5-yl)cyclopentyl tert-butylcarbamate]	20	0.52	38	37	19	390	23	33	12	0.70	(+)	38	38	0.52	5.2	0.52	1	(+)	37	37	Ki [2, 13]: ≤ 1 nM; CDK2 OVISE IC50 fold change in potency versus Comparator D ([4]; in brackets after OVISE IC50): 115 fold; CDK2 OVISE IC50 fold change in potency versus Comparator E ([4]; in brackets after OVISE IC50): 5.2 fold; FS SKOV-3/OVISE increased over Comparator D, (+) sign (SKOV-3 (ATCC HTB-77); Table R): (+); FS SKOV-3/OVISE (SKOV-3 (ATCC HTB-77); Table R): 12; FS SKOV-3/OVISE (SKOV-3 (ATCC HTB-77); Table S): 12

Continued, in another order:

Ki [1] [nM]	Ki [2, 5] [nM]	FS CDK1/CDK2 [2, 6]	FS CDK4/CDK2 [2, 7]	Ki [3] [nM]	IC50 (SKOV-3 (ATCC HTB-77); SK-OV-3, Table O) [nM]	IC50 (HCT116 cells) [nM]	Compound	IC50 ([4]; Table O) [nM]	FS SKOV-3/OVISE [4, 8]	FS p-H3/OVISE ([4]; Table O)	FS CDK1/CDK2 increased over Comparator D, (+) sign ([1]; Table R)	FS CDK1/CDK2 ([1]; Table R)	FS CDK1/CDK2 ([1]; Table S)	Ki [2, 9] [nM]	CDK2 Ki fold change in potency versus Comparator D [2, 10] [fold]	Ki [2, 11] [nM]	CDK2 Ki fold change in potency versus Comparator E [2, 12] [fold]	FS CDK4/CDK2 increased over Comparator D, (+) sign ([3]; Table R)	FS CDK4/CDK2 ([3]; Table R)	FS CDK4/CDK2 ([3]; Table S)	other results
550	5	110	260	1300	18000	410	Cc1nc(C#N)ccc1Nc1cc([C@H]2CC[C@@H](OC(=O)NC(C)C)C2)[nH]n1 [Example 2Z, (1R,3S)-3-(3-((6-cyano-2-methylpyridin-3-yl)amino)-1H-pyrazol-5-yl)cyclopentyl isopropylcarbamate]	250	72	1.6	–	–	–	–	–	–	–	–	–	–	increased fold-selectivity CDK1/CDK2 over Comparator C ([2]; Table Q, (+) sign after FS CDK1/CDK2): (+) (The (+) sign in Table Q signifies desirable increased fold-selectivity of the exemplary compounds over Comparator C); increased fold-selectivity CDK4/CDK2 over Comparator C ([2]; Table Q, (+) sign after FS CDK4/CDK2): (+) (The (+) sign in Table Q signifies desirable increased fold-selectivity of the exemplary compounds over Comparator C); Ki ([2]; Table Q, enzymatic assay, read-out: CDK2 Ki): 5 nM; FS CDK1/CDK2 ([2]; Table Q, enzymatic): 110; FS CDK4/CDK2 ([2]; Table Q, enzymatic): 260; improvement in potency against CDK2 (Ki) over Comparator C ([2]; Table Q, in brackets after CDK2 Ki, Comparator C 0.032 μM): 6.4 fold; increased fold-selectivity SKOV-3/OVISE over Comparator C ([4]; Table Q, (+) sign after FS SKOV-3/OVISE): (+) (The (+) sign in Table Q signifies desirable increased fold-selectivity of the exemplary compounds over Comparator C); FS SKOV-3/OVISE ([4]; Table Q, cellular): 72; improvement in CDK2 OVISE cell potency over Comparator C ([4]; Table Q, in brackets after OVISE IC50, Comparator C 5.5 μM): 22 fold; IC50 (SKOV-3 (ATCC HTB-77); SK-OV-3, Table Q): 18000 nM
47	1.8	26	61	110	2300	73	O=C(NC12CC(C1)C2)O[C@@H]1CC[C@H](c2cc(Nc3cccnn3)n[nH]2)C1 [Example 3, (1R,3S)-3-(3-(pyridazin-3-ylamino)-1H-pyrazol-5-yl)cyclopentyl bicyclo[1.1.1]pentan-1-ylcarbamate]	150	15	0.49	–	–	–	–	–	–	–	–	–	–	–
72	2.5	29	60	150	2700	160	CC1(NC(=O)O[C@@H]2CC[C@H](c3cc(Nc4cccnn4)n[nH]3)C2)CC1 [Example 3A, (1R,3S)-3-(3-(pyridazin-3-ylamino)-1H-pyrazol-5-yl)cyclopentyl (1-methylcyclopropyl)carbamate]	130	21	1.2	–	–	–	–	–	–	–	–	–	–	–
110	4	27	6	24	1300	350	CC1(NC(=O)O[C@@H]2CC[C@H](c3cc(Nc4cccnn4)n[nH]3)C2)CNC1 [Example 3F, (1R,3S)-3-(3-(pyridazin-3-ylamino)-1H-pyrazol-5-yl)cyclopentyl (3-methylazetidin-3-yl)carbamate]	320	4.1	1.1	–	–	–	–	–	–	–	–	–	–	–
